Here are results for 99 compounds from ChEMBL document CHEMBL3507680, “University of Dundee, Gates Library screen for HepG2 cell viability”.

A short description of this data set: Human HepG2 cell viability assay in 384 well format. Conditions: HepG2 cells, read-out: Inhibition. It counts as toxicity, cell-based. Also on record: dose 125 nL, time 70.5 hour; concentration not given beside the values.
In the case of `CC(C)NC(=O)N1CC[C@@H]2CN(Cc3ccccc3)S(=O)(=O)[C@@H]2CC1`, the cytotoxicity at 70.5 h is 18.6%.

As for `CN1CCC(N(C)C(=O)CSc2ccc(F)c(F)c2)C1=O` (centres undefined), the cytotoxicity at 70.5 h was -2.06%.

Regarding `Cc1cc(CN(C)C(=O)NCc2ccco2)no1`, the cytotoxicity at 70.5 h is -2.34%.

As to `CC(=O)NCCC1CCCCN1S(=O)(=O)c1cccc(C#N)c1` (centres undefined), the cytotoxicity at 70.5 h is -2.49%.

Take `Cc1c(C(=O)N2CCC3(CCCNC3=O)C2)sc2nc[nH]c(=O)c12` (centres undefined): the cytotoxicity at 70.5 h was -7.46%.

`CCCOc1ccc(CC2=NC(C)(CO)CO2)cc1` (centres undefined): the cytotoxicity at 70.5 h stood at 12%.

`CN(C)c1nc2c(c(N(C)C)n1)CCN(C(=O)CN1CCC(O)CC1)C2`: the cytotoxicity at 70.5 h is -7.75%.

As for `CS(=O)(=O)c1cncnc1C1CCCN(C(=O)NCc2ccccc2)C1` (centres undefined), the cytotoxicity at 70.5 h is -6.21%.

With `CCN(CC(=O)NC)C(=O)Cc1csc(C(C)C)n1`, the cytotoxicity at 70.5 h was -1.76%.

Regarding `Cn1ccc(C(=O)N2CCN(CC(O)C(C)(C)C)CC2)cc1=O` (centres undefined), the cytotoxicity at 70.5 h was -5.62%.

With `CC(C)C(=O)NCCNC(=O)C12CCC(=O)N1c1cc(Cl)ccc1S2` (centres undefined), the cytotoxicity at 70.5 h was -1.8%.

As to `CC(C)c1ncncc1C(=O)NCCN1CCCC1`, the cytotoxicity at 70.5 h was 5.71%.

`COC(=O)COn1c(SCC(=O)OC)nc2ccccc2c1=O`: the cytotoxicity at 70.5 h is -6.15%.

Regarding `O=C(NC[C@]12COC[C@H]1CN(Cc1cccnc1)C2)c1ccno1`, the cytotoxicity at 70.5 h is -14.7%.

As to `O=C(c1cn(-c2ccccc2Cl)nn1)N1CCCSCC1`, the cytotoxicity at 70.5 h was -9.29%.

For the compound `CCOCCOc1ccccc1C(=O)N1C[C@H](C2CC2)[C@@H](N)C1`, the cytotoxicity at 70.5 h is 27.2%.

Consider `FC(F)(F)c1cccc(C2(CNCc3cc[nH]c3)CCOCC2)c1`, for which the cytotoxicity at 70.5 h is -3.76%.

As for `Cc1ccc(N2CCO[C@H]3CN(Cc4nccs4)C[C@H]32)nn1`, the cytotoxicity at 70.5 h is -6.14%.

Consider `Cc1cc(NCc2csc(C)n2)no1`, for which the cytotoxicity at 70.5 h was -4.29%.

On to `c1ccc(N2CCC3(COCCN(Cc4cccs4)C3)C2)nc1` (centres undefined), for which the cytotoxicity at 70.5 h is -4.82%.

With `O=C(NCc1ccccn1)[C@@]12CCO[C@@H]1CCN(c1ncccn1)C2`, the cytotoxicity at 70.5 h is -4.87%.

Turning to `O=C([C@H]1C[C@@H]2CCN(c3cccc(F)c3)C[C@H]2O1)N1CCCC1`, the cytotoxicity at 70.5 h was -14.2%.

Take `CCN(CC)C(=O)CN1CCCC1c1nc(C)c2c(n1)N(C)C(=O)CC2` (centres undefined): the cytotoxicity at 70.5 h was -7.02%.

Regarding `COc1c(C)cnc(CN2CCCC(Cn3nc(C)nc3C)C2)c1C` (centres undefined), the cytotoxicity at 70.5 h was -3.59%.

For the compound `CCC(CC)(CCO)CNC(=O)c1ccon1`, the cytotoxicity at 70.5 h is -8.6%.

Take `CC(=O)c1cccc(NC(=O)Cn2cnc(-c3ccccc3)cc2=O)c1`: the cytotoxicity at 70.5 h was -3%.

As for `Cc1cnc2n1CCN(C)C21CCN(CC2CC2)CC1`, the cytotoxicity at 70.5 h was -0.923%.

For the compound `COCCOc1ccc(NC(=O)N2CCCC2c2cc(C)no2)cn1` (centres undefined), the cytotoxicity at 70.5 h was -7.2%.

For `Cc1cncc(C(=O)N2CCc3ncc(Cn4cccn4)n3CC2)c1`, the cytotoxicity at 70.5 h amounted to 22.9%.

With `CC(NC(=O)Nc1ccc(OC2CCCC2)cc1)c1nc[nH]n1` (centres undefined), the cytotoxicity at 70.5 h came to 12.8%.

Take `Cc1nc2n(n1)CC(NCC(=O)NCCCOC(C)C)CC2` (centres undefined): the cytotoxicity at 70.5 h was -0.276%.

As to `CCOCCNC(=O)c1cccnc1N1CCCC1c1ccccn1` (centres undefined), the cytotoxicity at 70.5 h is -8.32%.

As for `CCc1nn(C)c(Cl)c1CN(CCOC)Cc1cnn(C)c1`, the cytotoxicity at 70.5 h came to 0.921%.

Turning to `Cc1n[nH]c(C)c1NC(=O)CN1CCCC1c1noc(C(C)C)n1` (centres undefined), the cytotoxicity at 70.5 h stood at 15.2%.

For the compound `O=C(c1cccc(C2CCNC2)c1)N1CCC(c2ncc[nH]2)CC1` (centres undefined), the cytotoxicity at 70.5 h is -17%.

For the compound `CCc1nccn1C1CCCN(C(=O)c2ccnc(N(C)C)c2)C1` (centres undefined), the cytotoxicity at 70.5 h is -7.75%.

Turning to `Cc1ccc(F)c(NC(=O)CCC(=O)N(C)Cc2nc(C)c[nH]2)c1`, the cytotoxicity at 70.5 h was -5.55%.

For `COc1ccc2c(c1)OCC(CNC(=O)c1cnc(O)cn1)C2` (centres undefined), the cytotoxicity at 70.5 h is -3.99%.

Turning to `c1cnc2[nH]nc(C3CCN(Cc4ccsc4)CC3)c2c1`, the cytotoxicity at 70.5 h was -4.44%.

Turning to `O[C@H]1Cc2ccccc2[C@H]1Nc1ncccc1C(F)(F)F`, the cytotoxicity at 70.5 h is -4.3%.

With `O=C(C1CCCN(C2CCOCC2)C1)N1Cc2ccccc2C1` (centres undefined), the cytotoxicity at 70.5 h worked out at 13%.

Regarding `CC(Cn1cncn1)NCCN1CCc2ccccc2C1` (centres undefined), the cytotoxicity at 70.5 h is -6.48%.

For `Cc1ccnc(C2(C)CCCN2S(=O)(=O)c2c(C)noc2C)n1` (centres undefined), the cytotoxicity at 70.5 h amounted to 1.94%.

Turning to `Cc1nc(C)n(CC2CCCN2CC(=O)Nc2cccnc2)n1` (centres undefined), the cytotoxicity at 70.5 h was -0.954%.

With `COc1ccc(CNCC2CC2)cc1F`, the cytotoxicity at 70.5 h is -7.42%.

For `Cc1ncc(CN2CCC(c3ccnn3C)CC2)n1-c1ccccc1`, the cytotoxicity at 70.5 h was found to be 2.82%.

As for `c1ccc2nc(N3CCOC(Cn4cncn4)C3)cnc2c1` (centres undefined), the cytotoxicity at 70.5 h was -5.96%.

As to `CC(=O)c1cccc(OCCCC(=O)N(C)Cc2cnc(C)s2)c1`, the cytotoxicity at 70.5 h was -6.22%.

`CN1CC2(CCN(C(=O)c3cn4cccnc4n3)CC2)CC1=O`: the cytotoxicity at 70.5 h worked out at 39.7%.

Take `C[C@@H]1CN(CCC(=O)N(C)Cc2ccccc2)C[C@@]1(O)C1CCC1`: the cytotoxicity at 70.5 h is -7.64%.

For `CCC(Nc1ncccn1)c1cccnc1` (centres undefined), the cytotoxicity at 70.5 h was found to be 8.36%.

Consider `COc1cc(OC)c(-n2nnc(C(=O)O)c2C)cc1Cl`, for which the cytotoxicity at 70.5 h came to 1.66%.

As to `CCC(CC)C(=O)NCCC(=O)N1CCN(c2ccccn2)CC1`, the cytotoxicity at 70.5 h was 2.35%.

For the compound `CN(C)C(=O)CN1CCC2(COCc3cnc(-c4cccnc4)nc32)C1` (centres undefined), the cytotoxicity at 70.5 h is -5.78%.

As to `Cn1nc(CNC(=O)CC#N)c2c1CN(C(N)=O)CC2`, the cytotoxicity at 70.5 h was determined as 11.4%.

For `Cc1cccc(CO[C@@H]2CC[C@H]3[C@H]2OCCN3Cc2cc(C)on2)n1`, the cytotoxicity at 70.5 h was -0.405%.

Consider `CN(Cc1cc(-c2ccncc2)no1)Cc1nccn1C`, for which the cytotoxicity at 70.5 h stood at 10.3%.

Take `c1c[nH]c(CN2CCC3(CC2)COCCN(CCN2CCCC2)C3)c1`: the cytotoxicity at 70.5 h was -10.3%.

In the case of `Cc1cccc(NC(=O)[C@@H]2CCCN2Cc2nc(C)c(C)o2)n1`, the cytotoxicity at 70.5 h was -9.4%.

Take `Cc1noc(C)c1CN1CC[C@@H](OCC2CC2)[C@@H](Cc2ccccc2)C1`: the cytotoxicity at 70.5 h is -4.91%.

For `Cc1cc(C)nc(C2CCN(C3CCOCC3)C2)n1` (centres undefined), the cytotoxicity at 70.5 h is -11.5%.

In the case of `Cc1nc(-c2ccsc2)ccc1C(=O)N(C)CC(F)(F)F`, the cytotoxicity at 70.5 h is -11.2%.

For `Cc1nc(C)n(CC2CCCCN2Cc2nc3ccccc3o2)n1` (centres undefined), the cytotoxicity at 70.5 h turned out to be 17.7%.

As for `COCCN(Cc1ccccn1)C(=O)CC1OCCc2ccsc21` (centres undefined), the cytotoxicity at 70.5 h is -1.83%.

For `NC(=O)CCC1CCCN(c2ccnc3cc(F)ccc23)C1` (centres undefined), the cytotoxicity at 70.5 h is -12.1%.

`CN(C)CCCNCCC(c1ccccc1)C1CCOC(C)(C)C1` (centres undefined): the cytotoxicity at 70.5 h is -3.41%.

On to `Cc1cc(NC(=O)NCc2ccc(S(=O)(=O)N3CCCC3)s2)no1`, for which the cytotoxicity at 70.5 h is -7.64%.

As to `CSc1[nH]nc(NC(=O)c2ccncc2)c1C#N`, the cytotoxicity at 70.5 h is -1.59%.

In the case of `CC(C)c1noc(CCNC(=O)C2COc3ccccc3C2)n1` (centres undefined), the cytotoxicity at 70.5 h was 13.6%.

Take `CC(C)Sc1ncccc1C(=O)NCc1ccc(CS(C)(=O)=O)cc1`: the cytotoxicity at 70.5 h is 6.05%.

Take `CC(C)c1nn(C)c(N(C)C)c1CNCC(O)c1cccc(F)c1` (centres undefined): the cytotoxicity at 70.5 h was -10%.

`Cc1ncc(S(C)(=O)=O)c(N2CCCN(Cc3ccccn3)CC2)n1`: the cytotoxicity at 70.5 h is -5.13%.

On to `CC(Oc1ccccc1C(F)(F)F)C(=O)NCCNC(=O)C1CC1` (centres undefined), for which the cytotoxicity at 70.5 h is -6.09%.

With `CN(C)S(=O)(=O)CCNc1ncc2c(n1)CCN2c1ccccc1`, the cytotoxicity at 70.5 h is -6.26%.

Consider `COCCN1CCN(C(C)C(=O)Nc2ccnn2C(C)C)CC1` (centres undefined), for which the cytotoxicity at 70.5 h came out at 1.69%.

On to `CCn1c(C)cc(C(=O)N2CCC(Nc3cccnn3)CC2)c1C`, for which the cytotoxicity at 70.5 h is -108%.

For the compound `COC(=O)CC1CCCCN1CC(=O)Nc1ccc(F)cc1Cl` (centres undefined), the cytotoxicity at 70.5 h worked out at 21.6%.

For `Cc1ccc(C(=O)N2Cc3ccccc3OC3(CCOCC3)C2)cn1`, the cytotoxicity at 70.5 h stood at 30.6%.

For the compound `CCN(CC)CC(=O)N1CCN(c2nc(C)cc(OC)n2)CC1`, the cytotoxicity at 70.5 h was -0.607%.

For the compound `COc1ccc(Br)cc1SCCCS(C)(=O)=O`, the cytotoxicity at 70.5 h is -0.49%.

`CC(C(=O)N1CCOCC1)S(=O)(=O)Cc1nc(C(C)(C)C)no1` (centres undefined): the cytotoxicity at 70.5 h was -9.65%.

Turning to `NC(=O)CN1CCCC(c2cncc(Nc3ncccn3)n2)C1` (centres undefined), the cytotoxicity at 70.5 h is -6.48%.

Regarding `COCCNC(=O)c1cc(OC)c2ccoc2c1`, the cytotoxicity at 70.5 h was -1.33%.

Regarding `Cc1occc1C(=O)N1CCN2C[C@H](Oc3cccnc3)C[C@H]2C1`, the cytotoxicity at 70.5 h turned out to be 0.855%.

As for `CC1CCN(CCCNS(=O)(=O)Cc2ccccc2F)CC1`, the cytotoxicity at 70.5 h came to 1.01%.

Consider `CS(=O)(=O)N1CCC(NC(=O)COc2ccc(Cl)cc2)CC1`, for which the cytotoxicity at 70.5 h was -4.42%.

For the compound `Cc1nc(C)n(CC2CCCN2Cc2nc(-c3ccco3)no2)n1` (centres undefined), the cytotoxicity at 70.5 h was -4.04%.

Regarding `COc1ccc(CNC2(Cc3cc(CC(C)C)on3)COC2)cc1`, the cytotoxicity at 70.5 h is 9.64%.

`CO[C@@H]1CC[C@H]2[C@H]1OCCN2C(=O)COc1ccc(F)cc1`: the cytotoxicity at 70.5 h is -16.9%.

`CCC(=O)N1CCN(C(=O)Nc2ccccc2-c2cccs2)CC1`: the cytotoxicity at 70.5 h was -5.63%.

With `Nc1nc(Cn2ccnc2-c2cc(CN3CCCC3)cs2)cs1`, the cytotoxicity at 70.5 h is 3.17%.

Take `CNc1nc(C(=O)N2CCCC(COc3ccc(F)cc3)C2)cs1` (centres undefined): the cytotoxicity at 70.5 h is 3.44%.

On to `O=C(Nc1ncnc2c1CCC2)c1ccc2c(c1)OCO2`, for which the cytotoxicity at 70.5 h stood at 1.01%.

As for `CN(Cc1n[nH]c2c1CCC2)C(=O)c1cccc(CCC(C)(C)O)c1`, the cytotoxicity at 70.5 h is 1.92%.

With `O=C(c1n[nH]c(=O)c2ccccc12)N1CCCCC1c1ccn[nH]1` (centres undefined), the cytotoxicity at 70.5 h was -8.63%.

`COc1ccccc1C(C)Nc1ncc(C(N)=O)cc1Cl` (centres undefined): the cytotoxicity at 70.5 h was -9.04%.

As for `CCCN1CCc2c(C(=O)N(C)Cc3ccccn3)nn(C)c2C1`, the cytotoxicity at 70.5 h is -6.22%.

Take `CCN(CC(F)(F)F)C(=O)C1CCCN(Cc2nc(C)c(C)o2)C1` (centres undefined): the cytotoxicity at 70.5 h is -1.99%.

Take `Cc1nc(-c2ccc(CNS(=O)(=O)N(C)C)cc2)ccc1C(N)=O`: the cytotoxicity at 70.5 h is -2.19%.
